Reference: patent US12173061B2, “Compositions and methods for treatment of chronic lung diseases” (Board of Regents, The University of Texas System, priority 2021, dated 2024)

Experiments:
[1] = system: pulmonary fibrosis after lung injury; conditions: cited from earlier work; for subsequent pulmonary fibrosis: after BLM, prior work; for PF in mice after single (1×) or multi-hit (8×) BLM-, Ad-TGF-β1-, silica- and thoracic radiation-induced lung injury: prior work of the inventor's group
[2] = system: AECs / lung epithelial cells (LECs); conditions: cited from earlier work; for BLM-induced apoptosis of lung epithelial cells (LECs): in vitro and in vivo, prior work; for AEC apoptosis: prior work of the inventor's group
fLfs = conditions: prior work of the inventor's group; cited from earlier work
[3] = system: BLM-induced pulmonary fibrosis; test: BLM-induced established pulmonary fibrosis in mice, treatment d14-d21; assay type: in vivo; conditions: for BLM-induced pulmonary fibrosis (overall): mice, 1.0 U/kg BLM IT, peptide 10 mg/kg/d IP daily for 7 days starting d14; for lung compliance / lung elastance: flexiVent; for whole lung total hydroxyproline: lung homogenates
Method: FIGS. 9A-9O. M9 peptide and protein mitigated BLM-induced pulmonary fibrosis. Mice exposed to saline or 1.0 U/kg BLM by intratracheal instillation were treated with or without M9 peptide HGHVDPVKTPKI (SEQ ID NO: 4) (10 mg/kg/d) and M9 protein (SEQ ID NO: 1) 7.5 mg/kg/d) via IP injection daily for 7 days starting d14 after BLM injury. FIG. 9A: Representative micro-CT images at d21 after BLM exposure. FIG. 9B: Lung volumes were measured by quantitative-CT renditions. Lung compliance (FIG. 9C) and elastance (FIG. 9D) were measured using a flexiVent system. Lung weights (FIG. 9E) and body weights (FIG. 9F) are presented as bar graphs. Lung homogenates were tested for hydroxyproline (FIG. 9G), soluble collagen (FIG. 9H), pro-fibrogenic marker proteins (FIG. 9I) and mRNAs (FIG. 9J). Bars indicate mean±SD. Statistical significance (*P<0.05, **P<0.01, ***P<0.001 and ****P<0.0001) was assessed by one-way ANOVA with Turkey's multiple comparison. fLfs isolated from IPF lungs treated with PBS or recombinant full length M9 (rM9^FL) protein (2 μg/ml) for 48 h in vitro were tested for pro-fibrogenic proteins (FIG. 9L). fLfs (from IPF lungs) treated with PBS or extracellular domain of rM9^FL protein (rM9^ECD) as in FIG. 9L were tested for pro-fibrogenic proteins (FIG. 9N). The survival the mice treated with rM9^FL is shown FIG. 9M.
FIGS. 10A-10K. UNC5A (“U5”) peptide/protein mitigated BLM-induced pulmonary fibrosis. Mice exposed to saline or 1.0 U/kg BLM by intratracheal instillation were treated with or without U5 peptide (50 residues, SEQ ID NO: 7) (10 mg/kg/d) and full length U5 protein (SEQ ID NO: 5) (7.5 mg/kg/d) via IP injection daily for 7 days starting d14 after BLM injury. FIG. 10A: Representative micro-CT images at d21 after BLM exposure. FIG. 10B: Lung volumes were measured by quantitative-CT renditions. Lung compliance (FIG. 10C) and elastance (FIG. 10D) were measured using a flexiVent system. Lung weights (FIG. 10E) and body weights (FIG. 10F) are presented as bar graphs. Lung homogenates were tested for hydroxyproline (FIG. 10G), soluble collagen (FIG. 10H), pro-fibrogenic marker proteins (FIG. 10I) and mRNAs (FIG. 10J). Bars indicate mean±SD. Statistical significance (*P<0.05, **P<0.01, ***P<0.001 and ****P<0.0001) was assessed by one-way ANOVA with Turkey's multiple comparison.
FIGS. 11A-11K. ALG5 (“A5”) protein mitigated BLM-induced pulmonary fibrosis. Mice exposed to saline or 1.0 U/kg BLM by intratracheal instillation were treated with or without A5 protein (SEQ ID NO: 9) (7.5 mg/kg/d) via IP injection daily for 7 days starting d14 after BLM injury. FIG. 11A: Representative micro-CT images at d21 after BLM exposure. FIG. 11B: Lung volumes were measured by quantitative-CT renditions. Lung compliance (FIG. 11C) and elastance (FIG. 11D) were measured using a flexiVent system. Lung weights (FIG. 11E) and body weights (FIG. 11F) are presented as bar graphs. Lung homogenates were tested for hydroxyproline (FIG. 11G), soluble collagen (FIG. 11H), pro-fibrogenic marker proteins (FIG. 11I) and mRNAs (FIG. 11J). Bars indicate mean±SD. *P<0.05, **P<0.01, ***P<0.001 and ****P<0.0001 were obtained by one-way ANOVA with Turkey's multiple comparison.
FIGS. 12A-12E. WT mice with BLM-PF were treated with or without rM9^ECD (1.5 mg/kg) via intratracheal (IT) instillation daily for 7 d starting d 14 after BLM. Survival (FIG. 12A), body weights (FIG. 12B), lung volumes (FIG. 12C) and lung weights (FIG. 12D) were measured on d 21 post-BLM. Lung homogenates were tested for soluble collagen (FIG. 12E).
FIGS. 13A-13B. FIG. 13A: fLfs (IPF) treated with PBS or M9^mAb (2 μg/ml) or control IgG, tested for pro-fibrogenic proteins (i) and mRNAs (ii). FIG. 13B: WT mice with BLM-PF were left untreated, or intraperitoneal (IP) injected with control IgG or M9^mAb (2.5 mg/kg) daily for 7 d starting 14 d after IT BLM. Body weights (i) and total lung hydroxyproline (ii), and soluble collagen (iii) were measured. […]

[4] = peptide 10 mg/kg/d IP, 7 days starting d14 after BLM
[5] = peptide 10 mg/kg/d IP, 7 days starting d14 after BLM, d21

Substance | subsequent pulmonary fibrosis [1] | PF in mice after single (1×) or multi-hit (8×) BLM-, Ad-TGF-β1-, silica- and thoracic radiation-induced lung injury [1] | BLM-induced apoptosis of lung epithelial cells (LECs) [2] | AEC apoptosis [2] | fLf expansion (fLfs) | BLM-induced fibrogenic marker proteins (Col1, FN, TN-C, α-SMA) in whole lung homogenates [3, 4] | body weight [3, 4] | collagen and other extracellular matrix deposits (Trichrome staining of lung sections) [3, 4] | fibrogenic marker transcripts in whole lung homogenates [3, 4] | lung weight [3, 4] | lung compliance [3, 5] | lung elastance [3, 5] | whole lung total hydroxyproline [3, 4] | other results
DGIWKASFTTFTVTKYWFYR (listed as Homo sapiens) [CSP] | prevented | blocked | protected | inhibited | inhibited | – | – | – | – | – | – | – | – | –
VYCRKKEGLDSDVADSSILTSGFQPVSIKPSKADNPHLLTIQPDLSTTTT (VYCRKKEGLDSDVADSSILTSGFQPVSIKPSKADNPHLLTIQPDLSTTTT; listed as Homo sapiens) [U5A peptide] | – | – | – | – | – | inhibition | improvement | reduction | inhibition | reduction | improved | improved | reduction | BLM-induced pulmonary fibrosis (overall) ([3]; d21, listed as U5A 50-Mer Peptide): Mitigated; BLM-induced pulmonary fibrosis (overall) ([3]; d21, listed as U5 peptide): mitigated
HGHVDPVKTPKI (listed as Homo sapiens) [M9 peptide] | – | – | – | – | – | marked inhibition | improvement | remarkable reduction | marked inhibition | reduction | improved | improved | significant inhibition | BLM-induced pulmonary fibrosis (overall) ([3]; d21): mitigated; BLM-induced pulmonary fibrosis (overall) ([3]; d21, listed as M9 12-Mer Peptide): Mitigated; BLM-induced pulmonary fibrosis (overall) ([3]; d21, listed as SEQ ID NO: 4): resolved; lung volume ([3]; peptide 10 mg/kg/d IP, 7 days starting d14 after BLM, quantitative CT, d21): improved
FTTFTVT (listed as Homo sapiens) [CSP7] | – | blocked | – | inhibited | inhibited | – | – | – | – | – | – | – | – | tolerability in mice ([1]; prior work (Marudamuthu et al., 2019)): well-tolerated
NYHYLESSMTALYTLGH (listed as Homo sapiens) [PP-2] | prevented | – | protected | – | – | – | – | – | – | – | – | – | – | –
